{"source": "paper PMC10482267", "about": "“Safety, tolerability, pharmacokinetics, and pharmacodynamics of single and multiple doses of aficamten in healthy Chinese participants: a randomized, double-blind, placebo-controlled, phase 1 study” (Frontiers in Pharmacology, 2023)", "origin": "cited, not measured here", "set-up": "method as in Heitner et al., 2019; Olivotto et al., 2020", "conditions": "humans; ref Heitner et al., 2019; Olivotto et al., 2020; cited from earlier work", "data": [{"smiles": "CC(C)n1c(=O)cc(N[C@@H](C)c2ccccc2)[nH]c1=O", "note": "[Mavacamten, mavacamten]", "values": [{"measurement": "time to steady-state", "value": "approximately 6 weeks"}]}]}
